Reference: patent US20250296929A1, “NOVEL HEPATOSELECTIVE POLYADENYLATING POLYMERASES INHIBITORS AND THEIR METHOD OF USE” (BARUCH S. BLUMBERG INSTITUTE, priority 2021, published 2025)

Assays:
[1] = tested on: HBsAg secretion, HBV producing cell line HepG2.2.15; assay: Cellular assay: HBsAg inhibition in HBV producing cell line HepG2.2.15; assay type: cell-based; settings: Hepatitis B virus
Description: (§1) Cellular assays method 1: Cellular assays: The HBV producing cell line HepG2.2.15 was cultured in DMEM/F12 containing 10% fetal bovine serum (FBS), 100 U/ml penicillin and 100 μg/ml streptomycin (Invitrogen). Compounds of the disclosure in DMSO was added into the culture medium when cell reached 100% confluence. The final concentration of DMSO was adjusted to 0.5%. Culture medium was replaced in two days and the cell was cultured for additional two days in the presence of compound. HBsAg inhibition in culture medium was then detected with AlphaLisa assay using anti-HBsAg antibodies of 10-H05H and 60C-CR2100RB from Fitzgerald Internantional. To examine the change of nucleic acid, total RNA was extracted with Trizol reagents and resolved in glyoxal agarose gel. HBV RNA blotted onto nitrocellulose membrane was measured with P32 labeled ribo-probe. Reduction and shortening of viral RNA indicates on target effect of the tested compound. […] HepG2.2.15 cells were first seeded in 96-well plate (Corning, Cat #: CLS3595) at density of 10,000 cells/well in 100 ul DMEM/F12 medium containing 10% FBS. When cells reached 100% confluence, treatment with compounds of the disclosure was initiated, and cells were cultured in the way as described for HBsAg inhibition study. Four days post drug treatment, 100 ul of CellTiter-Glo reagents (Promega, Cat #G7570) were added into each well and the mixture was incubated at 23° C. for 12 minutes, followed by the reading of luminescent signal in Tecan's Infinite 200 PRO. Compound IC50 on HBsAg and CC50 on cell viability were calculated using Graphpad prism. The IC50 and CC50 are defined as the compound concentration (or conditioned media log dilution) at which HBsAg secretion and cytotoxicity, respectively, are reduced by 50% compared to the no drug control.
(§2) Cellular assays method 2: HepG2.2.15 cells were seeded in duplicate into white, 96-well plates at 1.5×10^4 cells/well. The cells were treated with a 3-fold serial dilution series of the compounds in DMSO. The final DMSO concentration in all wells was 1%, and DMSO was used as no drug control. The HBsAg chemiluminescence immunoassay (CLIA) kit (Autobio Diagnostics Co., Zhengzhou, China) was used to measure the levels of secreted HBV antigens semi-quantitatively. For the detection, 50 μL/well culture supernatant was used and the procedure conducted as directed by manufacturer's instructions. The cytotoxicity was measured using CellTiter-Glo (Promega, Madison, WI, USA, catalogue no. G7571). Dose-response curves were generated and the IC50 and CC50 values were calculated using Graphpad prism. The IC50 and CC50 are defined as the compound concentration (or conditioned media log dilution) at which HBsAg secrection and cytotoxicity, respectively, are reduced by 50% compared to the no drug control.

[2] = Cellular toxicity (CellTiter-Glo) in HepG2.2.15 cells; assay type: cell-based; settings: human
Description: as §1, §2

OATP1B1 = biological target: T1, OATP1B1 (Homo sapiens, UniProt Q9Y6L6); assay: OATP1B1 transporter substrate uptake in OATP1B1-HEK293 cells; assay type: in vitro ADME; settings: for Uptake Ratio (−/+Inhibitor): OATP1B1-HEK293 cells, inhibitor Rifamycin SV; for Uptake Ratio (Transporter(−Inhibitor)/Mock(−Inhibitor)): OATP1B1-HEK293 vs Mock (normal HEK293)
T1 construct: expressed in transfected cells; host or cells: HEK293
T1 sequence (Q9Y6L6 1-691): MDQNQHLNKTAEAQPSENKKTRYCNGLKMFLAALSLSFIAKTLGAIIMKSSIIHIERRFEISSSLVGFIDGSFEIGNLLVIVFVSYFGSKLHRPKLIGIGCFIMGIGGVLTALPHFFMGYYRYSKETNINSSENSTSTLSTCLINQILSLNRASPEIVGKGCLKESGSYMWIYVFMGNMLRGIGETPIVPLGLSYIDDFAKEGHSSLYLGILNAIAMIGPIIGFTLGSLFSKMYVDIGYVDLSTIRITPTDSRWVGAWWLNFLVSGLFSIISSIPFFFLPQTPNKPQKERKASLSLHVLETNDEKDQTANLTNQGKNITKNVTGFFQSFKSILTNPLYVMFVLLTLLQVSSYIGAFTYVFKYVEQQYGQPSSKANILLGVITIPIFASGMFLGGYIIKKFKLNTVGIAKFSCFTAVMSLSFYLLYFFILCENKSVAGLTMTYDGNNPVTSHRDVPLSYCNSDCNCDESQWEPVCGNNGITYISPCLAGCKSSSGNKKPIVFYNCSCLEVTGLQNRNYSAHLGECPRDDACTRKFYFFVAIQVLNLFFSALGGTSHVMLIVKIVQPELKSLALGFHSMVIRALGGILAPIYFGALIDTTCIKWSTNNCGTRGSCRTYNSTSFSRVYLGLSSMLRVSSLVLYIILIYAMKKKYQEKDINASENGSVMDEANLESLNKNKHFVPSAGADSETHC

OATP1B3 = biological target: T2, OATP1B3 (Homo sapiens, UniProt Q9NPD5); assay: OATP1B3 transporter substrate uptake in OATP1B3-HEK293 cells; assay type: in vitro ADME; settings: for Uptake Ratio (−/+Inhibitor): OATP1B3-HEK293 cells, inhibitor Rifamycin SV; for Uptake Ratio (Transporter(−Inhibitor)/Mock(−Inhibitor)): OATP1B3-HEK293 vs Mock
T2 construct: expressed in transfected cells; host or cells: HEK293
T2 sequence (Q9NPD5 1-702): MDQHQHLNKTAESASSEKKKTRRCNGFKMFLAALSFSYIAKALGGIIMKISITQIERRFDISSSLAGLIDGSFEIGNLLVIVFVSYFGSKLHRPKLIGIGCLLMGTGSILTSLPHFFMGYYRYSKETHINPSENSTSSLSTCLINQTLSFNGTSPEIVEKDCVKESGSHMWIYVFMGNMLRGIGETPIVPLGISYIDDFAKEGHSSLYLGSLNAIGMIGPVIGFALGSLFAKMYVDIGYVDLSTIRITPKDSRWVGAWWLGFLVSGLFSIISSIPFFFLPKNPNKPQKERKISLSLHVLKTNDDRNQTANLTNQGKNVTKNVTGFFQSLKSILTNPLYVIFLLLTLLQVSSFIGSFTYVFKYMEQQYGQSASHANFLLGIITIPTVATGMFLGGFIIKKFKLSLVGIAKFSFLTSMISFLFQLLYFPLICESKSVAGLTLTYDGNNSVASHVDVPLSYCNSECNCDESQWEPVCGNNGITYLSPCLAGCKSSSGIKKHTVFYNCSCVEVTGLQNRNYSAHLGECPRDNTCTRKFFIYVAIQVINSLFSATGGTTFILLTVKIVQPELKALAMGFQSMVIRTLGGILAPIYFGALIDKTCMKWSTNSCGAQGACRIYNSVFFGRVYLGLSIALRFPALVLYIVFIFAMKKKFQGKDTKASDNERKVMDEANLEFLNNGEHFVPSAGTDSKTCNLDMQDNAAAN
Description: Protocol for identification of compounds that are substrates of transporters OATP1B1 and OATP1B3. Transfected HTEK293 and vector control HTEK293 cells were cultured in 24-well poly-D-lysine or collagen-coated tissue culture plates ([…]) for 2 and 10 minutes respectively in transport buffer (HIBSSg, pH 7.4, pre-warmed to 37° C.). At a defined time point, the uptake experiments were stopped by removing dosing solution followed by two washes of ice-cold HIBSSg buffer. The cells were lysed for 2 minutes with […] containing an appropriate internal standard (when available). Lysis buffer were chilled to −20° C., and the plate was kept on ice during lysis. The cell lysate was transferred into a 96-well plate for sample analysis with LC-MS/MS analysis to determine concentration of test compound in cell lysate. The uptake of test compounds was normalized by total cell protein using the BCA Protein Assay Kit following the manufacturer's protocol. The inhibitor Rifamycin SV was used to block OATP1B1 and OATP1B3 transporter activity in order to determine uptake ratios.

HBV = settings: oral treatment, HBV infected uPA-SCID mice harboring human hepatocytes; cited from earlier work
[3] = tested on: woodchuck hepatitis virus (WHV); settings: oral administration, woodchucks chronically infected with WHV; cited from earlier work
[4] = in words; cited from earlier work

Compound	EC50 [1] [nM]	CC50 [2] [nM]	other results
COc1cc2c(cc1OCCCCCCCCC(=O)O)C[C@@H](C(C)C)n1cc(C(=O)O)c(=O)cc1-2 [Example 8, (S)-9-((8-carboxyoctyl)oxy)-6-isopropyl-10-methoxy-2-oxo-6,7-dihydro-2H-pyrido[2,1-a]isoquinoline-3-carboxylic acid]	4.6	> 10000	
C[C@]12CC[C@@H]3c4ccc(O)cc4CC[C@H]3[C@@H]1CC[C@@H]2O[C@@H]1O[C@H](C(=O)O)[C@@H](O)[C@H](O)[C@H]1O [Estradiol 17-β Glucuronide]			Uptake Ratio (−/+Inhibitor) (OATP1B1; test concentration 10 μM): 81.84; Uptake Ratio (Transporter(−Inhibitor)/Mock(−Inhibitor)) (OATP1B1; test concentration 10 μM): 48.70; Uptake Ratio (−/+Inhibitor) (OATP1B3; test concentration 10 μM): 86.15; Uptake Ratio (Transporter(−Inhibitor)/Mock(−Inhibitor)) (OATP1B3; test concentration 10 μM): 98.86
COCCCOc1cc2c(cc1OC)-c1cc(=O)c(C(=O)O)cn1[C@H](C(C)C)C2 [DHQ-1]			Uptake Ratio (−/+Inhibitor) (OATP1B1; test concentration 1 μM): 0.38; Uptake Ratio (Transporter(−Inhibitor)/Mock(−Inhibitor)) (OATP1B1; test concentration 1 μM): 0.71; Uptake Ratio (−/+Inhibitor) (OATP1B3; test concentration 1 μM): 0.42; Uptake Ratio (Transporter(−Inhibitor)/Mock(−Inhibitor)) (OATP1B3; test concentration 1 μM): 0.56; Reduction of HBsAg in the circulation (HBV): 1 log; Reduction of WHV and surface protein in the blood [3]: multi-log reductions; Toxicity observed [4]: acute neurotoxicity liabilities
COc1cc2c(cc1OCC(=O)O)C[C@@H](C(C)C)n1cc(C(=O)O)c(=O)cc1-2 [Example 1, (S)-9-(carboxymethoxy)-6-isopropyl-10-methoxy-2-oxo-6,7-dihydro-2H-pyrido [2,1-a]isoquinoline-3-carboxylic acid]	10000	> 10000	
COc1cc2c(cc1OCCCOCC(=O)O)C[C@@H](C(C)C)n1cc(C(=O)O)c(=O)cc1-2 [Example 5, (S)-9-(3-(carboxymethoxy)propoxy)-6-isopropyl-10-methoxy-2-oxo-6,7-dihydro-2H-pyrido[2,1-a]isoquinoline-3-carboxylic acid]	2780	> 10000	
COc1cc2c(cc1OCCCCCC(=O)O)C[C@@H](C(C)C)n1cc(C(=O)O)c(=O)cc1-2 [Example 4, (S)-9-((5-carboxypentyl)oxy)-6-isopropyl-10-methoxy-2-oxo-6,7-dihydro-2H-pyrido[2,1-a]isoquinoline-3-carboxylic acid]	87	> 10000	
COc1cc2c(cc1OCCCC(=O)O)C[C@@H](C(C)C)n1cc(C(=O)O)c(=O)cc1-2 [Example 2, (S)-9-(3-carboxypropoxy)-6-isopropyl-10-methoxy-2-oxo-6,7-dihydro-2H-pyrido [2,1-a]isoquinoline-3-carboxylic acid]	1010	> 10000	
COc1cc2c(cc1OCCCCC(=O)O)C[C@@H](C(C)C)n1cc(C(=O)O)c(=O)cc1-2 [Example 3, (S)-9-(4-carboxybutoxy)-6-isopropyl-10-methoxy-2-oxo-6,7-dihydro-2H-pyrido[2,1-a]isoquinoline-3-carboxylic acid]	380	> 10000	
COc1cc2c(cc1OCCCCCCCC(=O)O)C[C@@H](C(C)C)n1cc(C(=O)O)c(=O)cc1-2 [Example 7, (S)-9-((7-carboxyheptyl)oxy)-6-isopropyl-10-methoxy-2-oxo-6,7-dihydro-2H-pyrido[2,1-a]isoquinoline-3-carboxylic acid]	7.6	> 10000	
